According to US20230398114A1, “METHODS OF TREATING CORONAVIRUS DISEASE AND COMPOUNDS FOR SAME” (priority 2020, published 2023):
Values joined by “and” are separate entries in the source; they are usually repeats but may differ in a detail not shown here. Equal entries are not always repeated. Where two headings read alike, the source gives them in different places.

How the values were obtained:
[1] = test system: NR-53516 SARS-Related Coronavirus 2 Isolate New York—PV09158/2020; format: cell-based, SARS-CoV-2; details: Vero-76 cells, after 4 days
[2] = test system: USA-WA1/2020 (SARS-CoV-2) virus; format: in vivo, K18-hACE2 mice; details: for Lung (log10 TCID50/mL), group AVG: day 6, 7 mice per group, Mebendazole 50 mg/kg po; for Lung (log10 TCID50/mL), group AVG / Lung (log10 TCID50/mL), individual animals: Imatinib 100 mg/kg, Niclosamide 200 mg/kg, alone or combined; for Lung (log10 TCID50/mL), individual animals: day 6, Mebendazole 50 mg/kg po once daily
[3] = oral Imatinib dose of 400 mg/day; cited from earlier work
[4] = test system: Calu-3; details: Calu-3 cells, any concentration tested up to 100 μM
[5] = test system: Vero 76 African green monkey kidney cells; details: Vero 76 cells, any concentration tested up to 100 μM
[6] = test system: USA-WA1/2020 (SARS-CoV-2) virus; format: in vivo, K18-hACE2 mice; details: for Viral content by lung RT-qPCR, Log10, group AVG / Viral content by lung RT-qPCR, Mean Result, group AVG: day 6, 7 mice per group; for Viral content by lung RT-qPCR, Log10, group AVG / Viral content by lung RT-qPCR, Mean Result, group AVG / Viral content by lung RT-qPCR, Log10 (individual animals) / Viral content by lung RT-qPCR, Mean Result (individual animals): Imatinib 100 mg/kg, Niclosamide 200 mg/kg, alone or combined; for Viral content by lung RT-qPCR, Log10 (individual animals) / Viral content by lung RT-qPCR, Mean Result (individual animals): day 6, oral gavage once daily, Mebendazole 50 mg/kg
[7] = molecular target: Mast/stem cell growth factor receptor Kit (Homo sapiens, UniProt P10721); details: cited from earlier work
[8] = test system: SARS-CoV-2 (USA-WA1/2020 Isolate); experiment: microbe, parasite or virus in culture; format: cell-based; details: Calu-3 cells
[9] = test system: SARS-CoV-2; details: human hepatoma cell line (Huh 7.5 cells) infected with SARS-CoV-2; cited from earlier work
[10] = cited from earlier work
[11] = test system: human coronavirus NL63; details: microtubule inhibitor, compared with actin inhibitors; cited from earlier work
[12] = day 6, Mebendazole 50 mg/kg po, alone or with Imatinib 100 mg/kg po

Chain of Mast/stem cell growth factor receptor Kit (P10721 26-976, species assumed): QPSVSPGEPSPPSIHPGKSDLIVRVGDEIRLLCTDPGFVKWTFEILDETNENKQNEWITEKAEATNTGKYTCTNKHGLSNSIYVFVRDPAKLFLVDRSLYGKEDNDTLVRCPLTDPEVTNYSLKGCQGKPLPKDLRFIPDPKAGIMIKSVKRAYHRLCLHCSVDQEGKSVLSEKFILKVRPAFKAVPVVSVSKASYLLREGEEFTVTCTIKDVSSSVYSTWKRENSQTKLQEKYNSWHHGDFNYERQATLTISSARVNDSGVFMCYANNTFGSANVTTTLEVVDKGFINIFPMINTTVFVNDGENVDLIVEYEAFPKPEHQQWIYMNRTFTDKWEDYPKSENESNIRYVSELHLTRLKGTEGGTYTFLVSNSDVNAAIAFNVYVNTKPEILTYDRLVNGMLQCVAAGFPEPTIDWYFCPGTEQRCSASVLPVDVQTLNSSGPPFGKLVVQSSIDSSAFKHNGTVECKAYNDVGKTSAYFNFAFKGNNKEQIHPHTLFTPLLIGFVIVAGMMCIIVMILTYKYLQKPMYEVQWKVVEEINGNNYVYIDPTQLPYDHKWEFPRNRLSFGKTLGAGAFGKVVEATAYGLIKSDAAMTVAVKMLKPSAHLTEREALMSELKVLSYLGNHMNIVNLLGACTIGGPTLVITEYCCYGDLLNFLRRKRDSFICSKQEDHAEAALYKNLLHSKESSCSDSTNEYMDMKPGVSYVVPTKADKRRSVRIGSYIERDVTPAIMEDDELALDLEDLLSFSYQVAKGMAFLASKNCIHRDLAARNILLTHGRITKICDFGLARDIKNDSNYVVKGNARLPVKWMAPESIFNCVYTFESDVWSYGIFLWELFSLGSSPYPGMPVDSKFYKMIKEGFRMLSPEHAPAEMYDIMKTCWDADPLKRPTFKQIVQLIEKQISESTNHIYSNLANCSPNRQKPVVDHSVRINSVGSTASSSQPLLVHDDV

## CNC(=O)c1ccccc1Sc1ccc2c(/C=C/c3ccccn3)n[nH]c2c1 [Axitinib]
[1]; 500 nano molar
  reduction in viral load (Average Virus TCID50/ml*10^6): 66.4%

## COc1cc(Nc2c(C#N)cnc3cc(OCCCN4CCN(C)CC4)c(OC)cc23)c(Cl)cc1Cl [Bosutinib]
[1]; 50 nano molar
  reduction in viral load (Average Virus TCID50/ml*10^6): 47.3%

## COc1cc2ncnc(Nc3ccc(F)c(Cl)c3)c2cc1OCCCN1CCOCC1 [Gefitinib]
[1]; 50 nano molar
  reduction in viral load (Average Virus TCID50/ml*10^6): 53.54%

## Cc1ccc(NC(=O)c2ccc(CN3CCN(C)CC3)cc2)cc1Nc1nccc(-c2cccnc2)n1 [Imatinib]
[2]; day 6, 7 animals per group
  animals positively affected (lung TCID50): a single animal
[2]
  Lung (log10 TCID50/mL), group AVG: 7.4 log10 TCID50/mL
  Lung (log10 TCID50/mL), individual animals: 8.3 log10 TCID50/mL and 7.5 log10 TCID50/mL and 5.3 log10 TCID50/mL and 7.6 log10 TCID50/mL and 8.5 log10 TCID50/mL and 8.0 log10 TCID50/mL and 6.5 log10 TCID50/mL
[3]
  expected trough plasma concentration: 1.7 µM
[4]
  cytotoxicity (MTT): no cytotoxicity was observed
[5]
  cytotoxicity (MTT): no cytotoxicity was observed
[6]; Mebendazole 50 mg/kg po
  Viral content by lung RT-qPCR, Log10, group AVG: 7.8
  Viral content by lung RT-qPCR, Mean Result, group AVG: 9.54E+07
[6]
  Viral content by lung RT-qPCR, Log10 (individual animals): 7.6 and 7.7 and 7.9 (2×) and 8.0 and 7.3 and 8.5
  Viral content by lung RT-qPCR, Mean Result (individual animals): 3.67E+07 and 5.37E+07 and 7.80E+07 and 9.13E+07 and 2.15E+07 and 7.53E+07 and 3.12E+08
[1]; 10 micro molar
  reduction in viral load (Average Virus TCID50/ml*10^6): 29.6%
[7]
  known to target (value in brackets, measure not stated): 16 nM

## COC(=O)Nc1nc2ccc(C(=O)c3ccccc3)cc2[nH]1 [Mebendazole]
[2]
  Lung (log10 TCID50/mL), group AVG: 5.8 log10 TCID50/mL
  Lung (log10 TCID50/mL), individual animals: 6.0 log10 TCID50/mL and 5.3 log10 TCID50/mL (2×) and 4.8 log10 TCID50/mL and 5.5 log10 TCID50/mL and 7.3 log10 TCID50/mL and 6.5 log10 TCID50/mL
[8]; 2.3-5000 nM
  inhibition of SARS-CoV-2 (in words): Complete or near complete inhibition
[8]; Severe acute respiratory syndrome coronavirus 2, 24 h pretreatment, read 48 h after inoculation, MOI 0.005, read-out: EC50, inhibition of SARS-CoV-2
  EC50: 102 nM
[9]
  antiviral activity compared to the Vero E6 cells: appeared to be lower
[6]; Mebendazole 50 mg/kg po
  Viral content by lung RT-qPCR, Log10, group AVG: 7.8
  Viral content by lung RT-qPCR, Mean Result, group AVG: 4.36E+07
[6]
  Viral content by lung RT-qPCR, Log10 (individual animals): 7.9 (2×) and 7.7 and 7.3 (2×) and 7.6 and 7.5
  Viral content by lung RT-qPCR, Mean Result (individual animals): 7.15E+07 and 4.97E+07 and 7.76E+07 and 1.90E+07 and 2.03E+07 and 3.73E+07 and 2.95E+07
[6]; [12]
  Mean % Reduction of Lung Tissue RT-qPCR Titers vs. the Group Mean of Placebo Treated Mice: 44.2%
  Percent Reduction of Lung Tissue RT-qPCR Titers (Individual Animals) vs. the Group Mean of Placebo Treated Mice: 8.45% and 36.36% and 0.64% and 75.67% and 74.01% and 52.24% and 62.23%
[10]; humans, extensive first-pass metabolism
  share of a single oral dose that reaches systemic circulation: less than 10%
[10]; in vivo
  elimination half-life: 3 to 6 h
[10]; long-term oral administration
  higher exposure at steady-state: ~3 fold
[10]; oral dose
  share of an oral dose excreted in urine: < 2%

## O=C(Nc1ccc([N+](=O)[O-])cc1Cl)c1cc(Cl)ccc1O [Niclosamide]
[2]
  Lung (log10 TCID50/mL), group AVG: 6.1 log10 TCID50/mL
  Lung (log10 TCID50/mL), individual animals: 6.3 log10 TCID50/mL and 5.5 log10 TCID50/mL (3×) and 8.5 log10 TCID50/mL and 6.8 log10 TCID50/mL and 4.3 log10 TCID50/mL
[6]; Mebendazole 50 mg/kg po
  Viral content by lung RT-qPCR, Log10, group AVG: 7.7
  Viral content by lung RT-qPCR, Mean Result, group AVG: 8.46E+07
[6]
  Viral content by lung RT-qPCR, Log10 (individual animals): 7.6 and 6.7 and 7.5 (2×) and 8.0 and 8.5 and 7.9
  Viral content by lung RT-qPCR, Mean Result (individual animals): 4.28E+07 and 5.54E+06 and 3.04E+07 and 9.85E+07 and 3.08E+08 and 7.72E+07 and 2.97E+07

## COC(=O)Nc1nc2ccc(C(=O)c3cccs3)cc2[nH]1 [nocodazole]
[11]
  reduction of virus entry: did not
